The values below come from US20150266908A1, “FLAME RETARDANT COMPRISING AROMATIC PHOSPHATE ESTER-BASED COMPOUND, AND METHOD FOR PREPARING SAME” (priority 2012, published 2015).

The test system of this data set is CHO cells. The experiment in a line: Test on toxicity of DPBAP: chromosomal abnormality in CHO cells. In kind it is cell-based. How it is done: A test on the toxicity of the DPBAP in accordance with the method of the present invention was performed (by the Korea Research Institute of Chemical Technology). After treating the DPBAP to CHO cells, chromosomal abnormality was measured. Consequently, the increasing of the chromosomal abnormality was not observed in all of DPBAP treatment groups regardless of application of metabolic activation system. […] However, in the CHO cells, it was known that the polyploid and endoreduplication can be generally observed due to the over-proliferation, or other causes (Scott et al., 1990).

With `CCCCNP(=O)(Oc1ccccc1)Oc1ccccc1` [DPBAP, Diphenylbutylaminophosphate], the “toxicity (overall conclusion)” value (CHO cells chromosomal abnormality test) is on record as “no toxicity were observed”. The “increasing of the chromosomal abnormality” value (CHO cells, all DPBAP treatment groups, regardless of application of metabolic activation system) is “not observed”. Also, the cells dead result (CHO cells, highest concentration of the test material) is recorded as “about 50%”. Further, under “CHO cells, highest-concentration groups, treated during 24 hours”, the polyploid and endoreduplication result is “minority of polyploid and endoreduplication was observed”.
